Results: PMC6364417, “Kinase inhibitor library screening identifies synergistic drug combinations effective in sensitive and resistant melanoma cells” (Journal of Experimental & Clinical Cancer Research : CR, 2019)

Columns and labels:
Experiment in all cases: Kinase inhibitor library screening, PrestoBlue cell viability, 1 or 10 μM, 72 h
501Mel cells (parental) = details: 501Mel Parental, 72 h; for cell viability, 501Mel Parental, 10μΜ / cell viability, 501Mel Parental, 1μΜ / Cell viability in kinase inhibitor library screening, 501Mel Parental, 1μΜ / Cell viability in kinase inhibitor library screening, 501Mel Parental, 10μΜ: in %
Experimental: (§1) After 72 h of treatment, cell viability was assessed using the PrestoBlue Cell Viability Reagent (ThermoFisher Scientific). Measurements were performed with the CLARIOstar Monochromator microplate reader (BMG Labtech).
(§2) Kinase inhibitor library screening. […] Each cell line was treated in its sensitive form (parental), and also as 2 resistant derivatives, which were made resistant to either Vemurafenib (XP) or Dabrafenib (GP). Drugs were added at 2 different concentrations, 1 and 10 μM, for 72 h and cell viability was assessed using the PrestoBlue Cell Viability assay. Results are depicted as % viability compared to untreated cells. Each cell line was analyzed at least in duplicate. […] (XLSX 95 kb)

[1] = test system: 501Mel-GP cells (Dabrafenib-resistant); details: 501Mel GP, 72 h; for cell viability, 501Mel GP, 1μΜ / cell viability, 501Mel GP, 10μΜ / Cell viability in kinase inhibitor library screening, 501Mel GP, 1μΜ / Cell viability in kinase inhibitor library screening, 501Mel GP, 10μΜ: in %
Experimental: as §1, §2

[2] = test system: 501Mel-XP cells (Vemurafenib-resistant); details: 501Mel XP, 72 h
Experimental: as §1, §2

A375 cells (parental) = details: A375 Parental, 72 h; for cell viability, A375 Parental, 1μΜ / cell viability, A375 Parental, 10μΜ: in %
Experimental: as §1, §2

[3] = test system: A375-GP cells (Dabrafenib-resistant); details: A375 GP, 72 h; for cell viability, A375 GP, 10μΜ / cell viability, A375 GP, 1μΜ: in %
Experimental: as §1, §2

[4] = test system: A375-XP cells (Vemurafenib-resistant); details: A375 XP, 72 h; for cell viability, A375 XP, 1μΜ / cell viability, A375 XP, 10μΜ: in %
Experimental: as §1, §2

IGR37 cells (parental) = details: IGR37 Parental, 72 h; for cell viability, IGR37 Parental, 1μΜ / cell viability, IGR37 Parental, 10μΜ / Cell viability in kinase inhibitor library screening, IGR37 Parental, 1μΜ / Cell viability in kinase inhibitor library screening, IGR37 Parental, 10μΜ: in %
Experimental: as §1, §2

[5] = test system: IGR37-GP cells (Dabrafenib-resistant); details: IGR37 GP, 72 h; for cell viability, IGR37 GP, 1μΜ / Cell viability in kinase inhibitor library screening, IGR37 GP, 1μΜ: in %
Experimental: as §1, §2

[6] = test system: IGR37-XP cells (Vemurafenib-resistant); details: IGR37 XP, 72 h
Experimental: as §1, §2

Compound	cell viability, 501Mel Parental, 10μΜ (501Mel cells (parental); 10μΜ)	cell viability, 501Mel GP, 1μΜ ([1]; 1μΜ)	cell viability, 501Mel GP, 10μΜ ([1]; 10μΜ)	cell viability, 501Mel XP, 1μΜ ([2]; 1μΜ, in %)	cell viability, 501Mel XP, 10μΜ ([2]; 10μΜ, in %)	cell viability, A375 Parental, 1μΜ (A375 cells (parental))	cell viability, A375 Parental, 10μΜ (A375 cells (parental); 10μΜ)	cell viability, A375 GP, 10μΜ ([3]; 10μΜ)	cell viability, A375 XP, 1μΜ ([4]; 1μΜ)	cell viability, IGR37 Parental, 1μΜ (IGR37 cells (parental))	cell viability, IGR37 Parental, 10μΜ (IGR37 cells (parental); 10μΜ)	cell viability, IGR37 GP, 10μΜ ([5]; 10μΜ)	cell viability, IGR37 GP, 1μΜ ([5]; 1μΜ)	cell viability, IGR37 XP, 10μΜ ([6]; 10μΜ)	cell viability, IGR37 XP, 1μΜ ([6]; 1μΜ, in %)	cell viability, 501Mel Parental, 1μΜ (501Mel cells (parental); 1μΜ)	cell viability, A375 GP, 1μΜ ([3]; 1μΜ)	cell viability, A375 XP, 10μΜ ([4]; 10μΜ)	Cell viability in kinase inhibitor library screening, 501Mel Parental, 1μΜ (501Mel cells (parental); 1μΜ)	Cell viability in kinase inhibitor library screening, 501Mel Parental, 10μΜ (501Mel cells (parental); 10μΜ)	other results
CCCCCCCCCCCCc1ccc(S(=O)(=O)Nc2nncs2)cc1 [PHT-427]	–	–	–	–	–	–	–	–	–	–	–	–	–	–	–	–	–	–	–	–	cell viability (kinase inhibitor library screening) (501Mel cells (parental); 1μΜ): 99.9%; cell viability (kinase inhibitor library screening) (501Mel cells (parental); 10μΜ): 96.2%; cell viability (kinase inhibitor library screening) ([1]; 1μΜ): 115.7%; cell viability (kinase inhibitor library screening) ([1]; 10μΜ): 95.0%; cell viability (kinase inhibitor library screening) ([2]; 10μΜ): 85.4%; cell viability (kinase inhibitor library screening) (A375 cells (parental); 10μΜ): 98.4%; cell viability (kinase inhibitor library screening) ([3]; 1μΜ): 107.5%; cell viability (kinase inhibitor library screening) ([3]; 10μΜ): 93.5%; cell viability (kinase inhibitor library screening) ([4]; 1μΜ): 106.9%; cell viability (kinase inhibitor library screening) ([4]; 10μΜ): 100.2%; cell viability (kinase inhibitor library screening) (IGR37 cells (parental); 10μΜ): 110.3%; cell viability (kinase inhibitor library screening) ([5]; 1μΜ): 95.0%; cell viability (kinase inhibitor library screening) ([5]; 10μΜ): 98.8%; cell viability (kinase inhibitor library screening) ([6]; 10μΜ): 79.8%
COc1cc2c(N3CCN(C(=O)Nc4ccc(OC(C)C)cc4)CC3)ncnc2cc1OCCCN1CCCCC1 [Tandutinib (MLN518)]	95.2	103.5	85.5	94.1	71.2	106.1	89.7	83.5	107.0	100.2	98.5	91.4%	95.6	43.4%	103.1	–	–	–	–	–	–
C=CC(=O)Nc1cc2c(Nc3ccc(F)c(Cl)c3)ncnc2cc1OCCCN1CCOCC1 [CI-1033 (Canertinib)]	35.1	102.8	1.4	93.9	0.248	105.5	24.5	23.3	–	98.8	53.7	30.7%	92.4	23.7%	99.0	103.3	99.4	15.2	–	–	–
CC1(COc2ccc3c(c2)ncn3-c2ccc3cccc(N4CCC(N)CC4)c3n2)COC1 [Crenolanib (CP-868596)]	–	–	–	–	–	–	–	–	–	–	–	–	–	–	–	–	–	–	112.4	12.0	Cell viability in kinase inhibitor library screening, 501Mel GP, 1μΜ ([1]; 1μΜ): 108.6; Cell viability in kinase inhibitor library screening, 501Mel GP, 10μΜ ([1]; 10μΜ): 51.0; Cell viability in kinase inhibitor library screening, 501Mel XP, 10μΜ ([2]; 10μΜ, in %): 0.1; Cell viability in kinase inhibitor library screening, A375 Parental, 10μΜ (A375 cells (parental); 10μΜ): 69.9; Cell viability in kinase inhibitor library screening, A375 Parental, 1μΜ (A375 cells (parental)): 109.2; Cell viability in kinase inhibitor library screening, A375 GP, 10μΜ ([3]; 10μΜ): 66.5; Cell viability in kinase inhibitor library screening, A375 XP, 1μΜ ([4]; 1μΜ): 108.4; Cell viability in kinase inhibitor library screening, A375 XP, 10μΜ ([4]; 10μΜ): 78.4; Cell viability in kinase inhibitor library screening, IGR37 Parental, 1μΜ (IGR37 cells (parental)): 103.4; Cell viability in kinase inhibitor library screening, IGR37 Parental, 10μΜ (IGR37 cells (parental); 10μΜ): 89.7; Cell viability in kinase inhibitor library screening, IGR37 GP, 10μΜ ([5]; 10μΜ): 84.5%; Cell viability in kinase inhibitor library screening, IGR37 GP, 1μΜ ([5]; 1μΜ): 104.5; Cell viability in kinase inhibitor library screening, IGR37 XP, 10μΜ ([6]; 10μΜ): 30.9%
CCOc1cc2ncc(C#N)c(Nc3ccc(F)c(Cl)c3)c2cc1NC(=O)/C=C/CN(C)C [Pelitinib (EKB-569)]	89.9	102.6	92.4	–	91.9	103.3	79.2	88.7	104.6	99.8	97.0	92.3%	97.5	77.5%	97.8	102.9	98.8	96.9	–	–	–
COc1cccc2cc(-c3nc([C@H]4CC[C@H](C(=O)O)CC4)n4ncnc(N)c34)[nH]c12 [OSI-027]	–	–	–	–	–	–	–	–	–	–	–	–	–	–	–	–	–	–	74.7	14.4	Cell viability in kinase inhibitor library screening, 501Mel GP, 1μΜ ([1]; 1μΜ): 59.2; Cell viability in kinase inhibitor library screening, 501Mel GP, 10μΜ ([1]; 10μΜ): 13.9; Cell viability in kinase inhibitor library screening, 501Mel XP, 1μΜ ([2]; 1μΜ, in %): 55.5; Cell viability in kinase inhibitor library screening, 501Mel XP, 10μΜ ([2]; 10μΜ, in %): 6.8; Cell viability in kinase inhibitor library screening, A375 Parental, 10μΜ (A375 cells (parental); 10μΜ): 24.3; Cell viability in kinase inhibitor library screening, A375 Parental, 1μΜ (A375 cells (parental)): 72.3; Cell viability in kinase inhibitor library screening, A375 GP, 1μΜ ([3]; 1μΜ): 62.5; Cell viability in kinase inhibitor library screening, A375 GP, 10μΜ ([3]; 10μΜ): 21.4; Cell viability in kinase inhibitor library screening, A375 XP, 1μΜ ([4]; 1μΜ): 55.5; Cell viability in kinase inhibitor library screening, A375 XP, 10μΜ ([4]; 10μΜ): 19.1; Cell viability in kinase inhibitor library screening, IGR37 Parental, 1μΜ (IGR37 cells (parental)): 84.3; Cell viability in kinase inhibitor library screening, IGR37 Parental, 10μΜ (IGR37 cells (parental); 10μΜ): 46.6; Cell viability in kinase inhibitor library screening, IGR37 GP, 10μΜ ([5]; 10μΜ): 40%; Cell viability in kinase inhibitor library screening, IGR37 GP, 1μΜ ([5]; 1μΜ): 81.3; Cell viability in kinase inhibitor library screening, IGR37 XP, 1μΜ ([6]; 1μΜ, in %): 72.2
